Measured values: paper PMC10420250, “Assessment of Purity, Stability, and Pharmacokinetics of NGP-1, a Novel Prodrug of GS441254 with Potential Anti-SARS-CoV-2 Activity, Using Liquid Chromatography” (Molecules, 2023)

Columns and labels:
[1] = test system: several viruses; conditions: in vitro; cited from earlier work
[2] = Pharmacokinetic study in rats via gavage administration, plasma GS441 by LC-MS/MS; assay type: in vivo, Sprague-Dawley rats; conditions: equimolar doses
Method: A pharmacokinetic study was carried out in vivo using Sprague-Dawley rats to assess the behavior of NGP-1 when administered orally through the gastrointestinal route. The rats were randomly categorized into two groups (n = 6) and subjected to a 12 h overnight fast prior to oral administration. […] After administration, 0.5 mL of orbital blood was collected at specific time intervals in an EP tube with heparin moisturizing.
All the blood samples were promptly centrifuged at 4 °C to separate the upper plasma. A volume of 50 µL of plasma was subsequently transferred to a tube pre-filled with 450 µL of protein precipitant (H2O:ACN:MeOH = 1:4:4 containing 20 ng/mL of QX). […] After thorough mixing, the samples underwent high-speed centrifugation. The supernatants were extracted and centrifugated again. The resulting supernatants were collected and transferred into a vial for subsequent analysis.
The AB SCIEX QTRAP®4500 instrument, which comprised an LC system (ExionLC^TM, SCIEX, Framingham, MA, USA) and a triple-quadrupole mass spectrometer with an ESI interface, was used for the experiment. […] The data were acquired and analyzed using Analyst 1.7.3 coupled with MultiQuant 3.0.3 (SCIEX).

[3] = Stability of NGP-1 in artificial digestive juices (HPLC-DAD); assay type: in vitro ADME
Source text: Esterification is the predominant reaction used for the generation of prodrugs, owing to the facile hydrolysis of esters by various and ubiquitous esterases present in the various matrices. However, the presence of esters, particularly cyclic lactones, may result in instability in acidic, basic, or esterase environments. In this study, HPLC-DAD was employed to assess the stability of NGP-1 in different artificial digestive juices. The test samples were collected at various time intervals subsequent to dissolving NGP-1 in artificial gastric juice (diluted HCl with pepsin, pH = 1.5) and artificial intestinal juice (PBS with trypsin, pH = 6.8).
Mobile phase A consisted of a phosphoric acid solution, while mobile phase B consisted of ACN. Gradient elution was employed to separate the components under the following conditions: 0–4 min, 30–50% B; 4–10 min, 50% B. The specific parameters for liquid chromatography are presented in Table 2. […] Then, the content of the objective analytes in each sample was calculated using the external standard method.

| SMILES | EC50 comparison GS441 vs RDV [1] | AUC0–∞ of converted GS441 relative to directly administered GS441 [2] | Frel / oral bioavailability of NGP-1 relative to GS441 [2] | Degradation rate in artificial gastric juice ([3]; AGJ, diluted HCl with pepsin, pH = 1.5) | Stability in artificial intestinal juice ([3]; AIJ, PBS with trypsin, pH 6.8) |
| --- | --- | --- | --- | --- | --- |
| N#C[C@@]1(c2ccc3c(N)ncnn23)O[C@H](CO)[C@@H](O)[C@H]1O [GS441] | higher EC50 than RDV |  |  |  |  |
| CC(C)C(=O)OC[C@H]1O[C@@](C#N)(c2ccc3c(N)ncnn23)[C@@H]2OC(=O)O[C@@H]21 [NGP-1] |  | approximately four | approximately four and four | accelerate significantly | relatively stable |
| CCC(CC)COC(=O)[C@H](C)N[P@](=O)(OC[C@H]1O[C@@](C#N)(c2ccc3c(N)ncnn23)[C@H](O)[C@@H]1O)Oc1ccccc1 [RDV, remdesivir] | more potent |  |  |  |  |
